Assay results reported in US20240271100A1, “IN VITRO DIFFERENTIATION OF PANCREATIC ENDOCRINE CELLS” (VERTEX PHARMACEUTICALS INCORPORATED, priority 2020, published 2024).

Legend:
EZH2 = EZH2 (Homo sapiens, UniProt Q15910); conditions: cited from earlier work
[1] = tested on: PDX1-positive pancreatic progenitor cells; experiment: FGF2 applied during S4 of the Version A differentiation protocol; flow cytometry of the resulting endocrine cell population; format: cell-based, human
Procedure: (§1) For initial steps, basically, human pluripotent stem cell line SEM01 was thawed from a 3D suspension bank and seeded at a density of 1M cells/ml into 500 ml spinner flasks (Corning; 89,089-814) with 300 ml Nutristem media (Biological Industries 05-100-1A) supplemented with […] Y27632 (ab120129) and 100 ng/ml FGF2 (Peprotech RUO: 100-18B-1MG). Spinner flasks were placed on a magnetic stir plate (Chemglass) rotating at 60 r.p.m. in a humidified 37 C incubator set at 5% CO2. Cells were passaged every 72 hours. After 3 passages, cells were seeded at 0.5M cells/ml density and fed every 24 hours until 72 hours. Then, differentiation was initiated in spinner flasks using the Version A differentiation protocol which begins on day 1 of Stage 1 (S1, day 1). FGF2 was added to Stage 3, Stage 4, or Stage 5 as detailed below in the modified protocol.
(§2) Version A protocol is a 6-stage stepwise protocol. With Version A protocol, stem cells were treated with reagents in the following consecutive orders during the six stages: Stage 1 (S1), Activin-A for 3 days and also CHIR99021 for the first 24 hr; Stage 2 (S2), KGF for 3 days; Stage 3 (S3), KGF, PDBU, Sant-1, retinoic acid (RA), Activin A, and Thiazovivin for 2 days, and also DMH-1 for the first day; Stage 4 (S4), KGF, Sant-1, Thiazovivin, Activin A, and RA for 6 days; Stage 5 (S5), XXI, Alk5i, GC-1, LDN-193189, Thiazovivin, Staurosporine, and DZNEP for 7 days, and also RA, Sant-1, and Betacellulin for the first 2 days.
(§3) Upon completion of Stage 5, on Stage 6 day 1 (S6dl), the cells were collected, dispersed, and analyzed by flow cytometry. Briefly, islets were dispersed with TrypLE Express (Life Technologies; 12,604,013) at 37 C, fixed with 4% PFA for 20 mins at 4 C, blocked by 1 hour in FACS buffer (5% Donkey Serum and 0.1% Saponin in PBS) at room temperature, stained with NKX6.1 (DSHB FSSA12 1:100) and ISL1 (ab178400 1:500) antibodies diluted in FACS buffer overnight at 4 C. The next day, cells were washed twice with FACS buffer, stained with secondary antibody: anti-Rabbit AlexaFluor-488 (A31573 1:1000) and anti-Mouse Alexa Fluro-647 (A31571 1:1000) diluted in FACS buffer, and washed twice with FACS buffer. Stained cells were measured using an Accuri 6 flow cytometer (BD Biosciences) and analyzed using Accuri software.
In one experiment, Version A protocol, as described in Example 1, was compared with a modified protocol in which 100 ng/mL FGF2 was added on day 1, 3, and 5 of S4 to the culture medium. As described above, on S6dl, the cells were collected, dispersed, and analyzed by flow cytometry.

[2] = tested on: Stage 6 cells (NKX6.1-positive, ISL1-positive endocrine cells); experiment: FGF2 applied at S6 of the Version A or Version B differentiation protocol; cell composition by flow cytometry; format: cell-based, human
Procedure: In one experiment, the effect of FGF2 treatment at S6 was examined by comparing Stage 6 cells generated with Version A protocol, as described in Example 1, or with Version A protocol plus FGF2 treatment (100 ng/mL) at S6 for the first 3 days.
In another experiment, the effect of FGF2 treatment at S6 was examined by comparing S6 cells generated under four differentiation conditions: Version A protocol; Version A protocol + FGF2 treatment (100 ng/mL for the first 12 days) at S6; Version B protocol; Version B protocol+ FGF2 treatment at S6. Version B protocol shares similar reagents and treatment timing with […], in Version B protocol, one difference from Version A protocols is that the cells were supplemented with 500 nM PDBU from day 5 of Stage 4 (S4d5) to day 2 of […] (S5d2). […]

primitive gut tube cells = experiment: FGF2 applied during S3 of the Version A differentiation protocol; flow cytometry of the resulting endocrine cell population; format: cell-based, human
Procedure: An exemplary differentiation protocol, Version A, according to the present disclosure and its modified version, which added use of FGF2 at Stage 3, were tested for differentiating human stem cells into mature β cells capable of releasing insulin in response to glucose challenge in vitro.
as §1, §2
In one experiment, on protocol day 7 (S3, day 1; S3dl), 10 mL of cell clusters were taken from the spinner flask and aliquoted into 2 wells of ultra-low attachment 6-well plates (Corning 29443) (5 mL/well). The plate was placed on an orbital shaker set to 130 rpm in the incubator. Cells received either control Version A conditions as described above or were supplemented with FGF2 (100 ng/ml) on protocol day 7 and day 8 only (S3d1 and S3d2).
as §3

[3] = tested on: PDX1-positive, NKX6.1-positive pancreatic progenitor cells; experiment: FGF2 applied at S5 day 1 and day 2 of the Version A differentiation protocol; flow cytometry on S6d1; format: cell-based, human; conditions: FGF2 100 ng/mL at S5 day 1 and day 2; FIGS. 8A-8B
Procedure: as §1, §2
Upon completion of Stage 5, on Stage 6 day 1 (S6dl), the cells were collected, dispersed, and analyzed by flow cytometry. […] Stained cells were measured using an Accuri 6 flow cytometer (BD Biosciences) and analyzed using Accuri software.
In one experiment, Version A protocol, as described in Example 1, was compared with a modified protocol in which 100 ng/mL FGF2 was added on protocol day 15 and day 16 (Stage 5 day 1 and day 2). As described above, on S6dl, the cells were collected, dispersed, and analyzed by flow cytometry.

[4] = FGF2 100 ng/mL at S4 versus Version A without FGF2, FIG. 2B
[5] = FGF2 treatment at S4, FIGS. 8A-8B
[6] = FGF2 treatment at S6, summary FIG. 8A
[7] = Version B protocol, FGF2 at S6, by S6d8 and S6d12, FIGS. 5A-C
[8] = FGF2 treatment at S3, by the end of S5, FIGS. 8A-8B

EZH2, sequence (Q15910 whole entry, species assumed): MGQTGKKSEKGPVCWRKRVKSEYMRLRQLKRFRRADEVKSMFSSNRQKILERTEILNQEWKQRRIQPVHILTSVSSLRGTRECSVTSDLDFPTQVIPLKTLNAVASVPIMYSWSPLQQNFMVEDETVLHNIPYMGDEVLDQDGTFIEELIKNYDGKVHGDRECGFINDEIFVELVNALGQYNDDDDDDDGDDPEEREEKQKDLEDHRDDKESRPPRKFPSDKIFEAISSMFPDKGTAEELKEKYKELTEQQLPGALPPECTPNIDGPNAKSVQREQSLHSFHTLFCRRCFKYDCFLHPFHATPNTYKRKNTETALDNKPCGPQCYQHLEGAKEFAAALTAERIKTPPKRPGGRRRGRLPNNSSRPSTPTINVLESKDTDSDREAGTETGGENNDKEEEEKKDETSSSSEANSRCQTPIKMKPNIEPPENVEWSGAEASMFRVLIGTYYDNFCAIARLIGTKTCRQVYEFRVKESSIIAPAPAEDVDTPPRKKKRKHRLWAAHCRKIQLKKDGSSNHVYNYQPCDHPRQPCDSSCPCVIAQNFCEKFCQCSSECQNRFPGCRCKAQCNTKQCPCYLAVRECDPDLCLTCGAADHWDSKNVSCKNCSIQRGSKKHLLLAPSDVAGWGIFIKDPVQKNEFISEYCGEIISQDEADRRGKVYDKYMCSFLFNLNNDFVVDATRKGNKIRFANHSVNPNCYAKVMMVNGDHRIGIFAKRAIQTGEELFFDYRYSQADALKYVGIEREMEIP
EZH2, sequence (O75530 whole entry partner, species assumed): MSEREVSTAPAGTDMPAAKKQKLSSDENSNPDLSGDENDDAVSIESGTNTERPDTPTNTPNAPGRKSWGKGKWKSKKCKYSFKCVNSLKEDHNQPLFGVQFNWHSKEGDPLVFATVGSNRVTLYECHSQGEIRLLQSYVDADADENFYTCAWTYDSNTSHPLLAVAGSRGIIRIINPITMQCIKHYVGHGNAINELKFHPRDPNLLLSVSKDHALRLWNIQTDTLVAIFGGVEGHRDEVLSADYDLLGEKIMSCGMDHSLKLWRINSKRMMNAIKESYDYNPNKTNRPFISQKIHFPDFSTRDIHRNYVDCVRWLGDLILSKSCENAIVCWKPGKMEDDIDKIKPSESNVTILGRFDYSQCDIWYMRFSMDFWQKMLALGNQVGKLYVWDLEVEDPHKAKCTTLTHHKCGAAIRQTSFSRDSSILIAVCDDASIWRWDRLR
EZH2, sequence (Q15022 whole entry partner, species assumed): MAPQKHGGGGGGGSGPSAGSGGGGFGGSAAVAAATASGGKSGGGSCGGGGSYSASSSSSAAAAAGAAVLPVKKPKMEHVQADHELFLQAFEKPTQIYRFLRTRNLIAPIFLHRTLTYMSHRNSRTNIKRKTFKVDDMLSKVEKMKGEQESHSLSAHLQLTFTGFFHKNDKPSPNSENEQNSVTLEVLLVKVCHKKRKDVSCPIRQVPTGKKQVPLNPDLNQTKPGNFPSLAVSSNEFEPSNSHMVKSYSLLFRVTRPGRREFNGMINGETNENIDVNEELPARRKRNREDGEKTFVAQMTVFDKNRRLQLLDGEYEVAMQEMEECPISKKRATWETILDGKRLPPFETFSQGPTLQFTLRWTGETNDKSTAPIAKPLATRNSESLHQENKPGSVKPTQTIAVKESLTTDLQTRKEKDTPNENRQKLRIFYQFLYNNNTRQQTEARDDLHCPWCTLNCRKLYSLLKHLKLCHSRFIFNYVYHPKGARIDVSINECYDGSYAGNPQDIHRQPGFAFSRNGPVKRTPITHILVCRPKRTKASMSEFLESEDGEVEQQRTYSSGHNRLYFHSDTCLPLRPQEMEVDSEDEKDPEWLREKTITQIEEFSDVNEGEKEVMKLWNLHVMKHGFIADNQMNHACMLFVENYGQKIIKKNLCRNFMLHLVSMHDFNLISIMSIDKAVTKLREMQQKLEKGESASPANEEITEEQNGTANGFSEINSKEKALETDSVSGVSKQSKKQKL

CC[C@H](C)n1cc(C)c2c(C(=O)NCc3c(C)cc(C)[nH]c3=O)cc(-c3ccc(N4CCNCC4)nc3)cc21 [GSK126]
selectivity over EZH1 (EZH2; EZH2 versus EZH1): 150 fold

CCCc1cc(C)[nH]c(=O)c1CNC(=O)c1cc(-c2ccc(N3CCN(C(C)C)CC3)nc2)cc2c1cnn2C(C)C [UNC1999]
selectivity compared with GSK126 (EZH2): less selective

FGF2: growth factor from the FGF family; human FGF2 polypeptide sequence (GenBank Accession NP 001997); Peprotech RUO: 100-18B-1MG
change in percentage of glucagon-positive, ARX-positive cells [1, 4]: increased
change in percentage of total ARX-positive cells [1, 4]: increased
increase of the percentage of somatostatin-positive SC-δ cells [1, 4]: about two
percentage of NKX6.1-negative, ISL1-positive SC-α cells ([1]; FGF2 100 ng/mL on day 1, 3 and 5 of S4, Version A, flow cytometry on S6d1, without FGF2 5.6%): 12.0%
percentage of NKX6.1-positive, ISL1-positive SC-β cells ([1]; FGF2 100 ng/mL on day 1, 3 and 5 of S4, Version A, flow cytometry on S6d1, without FGF2 around 43%): around 55%
change in percentage of SC-EC cells [1, 5]: decreased
change in percentage of SC-α cells [1, 5]: increase
change in percentage of SC-β cells [1, 5]: increase
change in percentage of SC-δ cells [1, 5]: increase
change in percentage of SOX9-positive cells [1, 5]: decreased
percentage of VMAT1-positive cells ([1]; FGF2 treatment at S4, without FGF2 about 60%, FIG. 3B): about 40%
percentage of SOX9-positive, NKX6.1-positive cells ([1]; FGF2 treatment at S4, without FGF2 around 12.5%): around 5%
percentage of total SOX9-positive cells ([1]; FGF2 treatment at S4, without FGF2 around 20%, FIG. 3A): around 14%
percentage of NKX6.1-positive, ISL1-negative cells ([1]; FGF2 treatment at S4, without FGF2 around 40%, FIG. 3B): around 20%
change in percentage of Ki67-positive cells ([2]; FGF2 at S6, both Version A and Version B protocols): increased
percentage of non-proliferating SOX9-positive cells (SOX9-positive, Ki67-negative) ([2]; FGF2 at S6, by S6d12, both Version A and Version B protocols, without FGF2 15%-25%, FIG. 6A): about 65%
percentage of proliferating SOX9-positive cells (SOX9-positive, Ki67-positive) ([2]; FGF2 at S6, by S6d12, both Version A and Version B protocols, without FGF2 close to zero, FIG. 6B): 15%-20%
change in percentage of proliferating non-SOX9 cells (SOX9-negative, Ki67-positive) ([2]; FGF2 treatment at S6, FIG. 6C): small change
effect on SC-EC cells, as measured by expression of VMAT1, or positivity for NKX6.1 and negativity for ISL1 ([2]; FGF2 treatment at S6, S6d4, S6d8, S6d12, FIGS. 7A-7B): small effect
change in percentage of SC-α cells [2, 6]: increase
change in percentage of SC-β cells [2, 6]: increase
change in percentage of SC-δ cells [2, 6]: increase
percentage of NKX6.1-positive, ISL1-positive SC-β cells ([2]; Version A plus FGF2 100 ng/mL at S6 for the first 3 days, flow cytometry, without FGF2 18.5%): 36.9%
change in percentage of SC-β cell ([2]; Version A protocol, FGF2 100 ng/mL for the first 12 days at S6, by S6d8 and S6d12): relatively unchanged
change in SC-δ cell percentage [2, 7]: increased
change in percentage of SC-α cells [2, 7]: reduced
change in percentage of SC-β cells [2, 7]: reduced
change in SOX9-positive cells ([2]; addition of FGF2 at S6, both Version A and Version B protocols): significantly increased
percentage of SC-α cells that express ISL1, but do not express NKX6.1 (primitive gut tube cells; FGF2 100 ng/ml on S3d1 and S3d2, Version A, flow cytometry on S6d1, without FGF2 9.7%): 35.1%
percentage of SC-enterochromaffin cells (SC-EC) that express NKX6 but not ISL1.1 (primitive gut tube cells; FGF2 100 ng/ml on S3d1 and S3d2, Version A, flow cytometry on S6d1, without FGF2 31.7%): 13.1%
percentage of SC-β cells that express both NKX6.1 and ISL1 (primitive gut tube cells; FGF2 100 ng/ml on S3d1 and S3d2, Version A, flow cytometry on S6d1, without FGF2 49.3%): 36.6%
change in percentage of SC-EC cells (primitive gut tube cells; [8]): decreased
change in percentage of SC-β cells (primitive gut tube cells; [8]): decreased
change in percentage of SC-α cells (primitive gut tube cells; FGF2 treatment at S3, cells generated by the end of S5, FIGS. 8A-8B): increased
change in SC-EC cells [3]: decrease
change in SC-α cells [3]: increase
change in percentage of SC-β cells [3]: no significant change
